Key:
Sprague-Dawley rats = test: Streptozotocin rat model of diabetic retinopathy; format: in vivo; conditions: 10 mg/ml eye drops for two weeks, STZ diabetic rats
Description: Animals were maintained on a 12 h light-dark cycle, at 22-25° C. Food and water were available ad libitum. Diabetes was induced by a single dose of streptozotocin (STZ, 70 mg/kg, ip, Sigma-Aldrich, Germany) dissolved in sodium citrate (0.1M) buffer (diabetic group) after a fasting period of 8-12 hours. Animals with blood glucose levels>350 mg/d1, after 72 hours post-STZ injection were considered diabetic. Both male and female Sprague-Dawley rats were used in the study. Three experimental groups were employed, namely Control (n=6), Diabetic (n=7), and Diabetic-treated group (n=6). Example 17 (10 mg/ml) dissolved in DMSO was administered as eye drops, for two weeks, starting two (2) days after STZ administration. Animals were euthanized 24 hours after the last treatment, and their eyes were removed. […]
Antibodies raised against the macroglia marker glial fibrillary acidic protein (GFAP) were employed. Quantification using the public domain ImageJ 1.43m software was employed for the mean gray value [integrated density (fluorescence density)/delineated area] calculated and expressed as a percentage of the mean gray value of the control. Statistical analysis of the data was performed using GraphPad Prism v5.0 (San Diego, Calif., USA) and differences between groups were evaluated by one-way analysis of variance (ANOVA) with Neuman-Keuls. […]

Hippocampal brain slices = test: In vitro stroke model: hippocampal brain slices subjected to hypoxia and glucose deprivation; format: cell-based; conditions: hypoxia and glucose deprivation 5 hours, viability after 24 hours of culture
Description: (§1) FIG. 4 is a bar chart showing cell viability (in % of basal cell viability) of hippocampal brain slices subjected to hypoxia and starvation for 5 h and then cultured for 24 h in the absence (OGD) or presence of Example 11 at a concentration of 0.3 μM, 3 μM, or 10 μM. Basal=no hypoxia or starvation, cells cultured in the presence of culture medium only. OGD=5 h of hypoxia or starvation, cells cultured in the presence of culture medium only.
as §1, with “FIG. 5” for “FIG. 4”, “Example 17” for “Example 11”, “of 0.3,” for “of 0.3 μM,”, “3” for “3 μM,”
Hippocampal brain slices and human brain micro-vascular endothelial cells were subjected to hypoxia and glucose deprivation (starvation) for 5 hours and were tested for viability after 24 hours of culture in the presence of Example 11 or Example 17 at different concentrations. Additionally, human brain micro-vascular endothelial cells were subjected to hypoxia and glucose deprivation (starvation) for 6 hours and were tested for viability after 24 hours of culture in the presence of Example 44 at various concentrations.

Human islet cells = test: Effects on human islet cell viability; format: cell-based; conditions: 48 h, compound 1 μM
Description: Human islet cells were incubated at control condition, with the cytokines IL-1β (20 ng/ml)+IFN-γ (20 ng/ml), or with palmitate (1.5 mM+2% BSA)+high glucose (20 mM) (PH) for 2 days with or without Nox1 inhibitor ML-171 (2 μM), Nox2 inhibitor Phos-I2 (2 μM) or Example 17 (1 μM). Islets were photographed in an inverted fluorescence microscope and the intensities of red (PI) and blue (Bisbenzimide) signals were quantified using Image J software. Results are indicated as mean±S.E.M for 7 human islet donors.

C57B16/J mice = test: Mouse model of acute ischemic stroke by transient middle cerebral artery occlusion (tMCAO); format: in vivo; conditions: 2.56 mg/kg ip, 6 times once per hour, from 1 hour after reperfusion or 30 min before reperfusion, 24 h
Description: A mouse model of acute ischemic stroke by transient middle cerebral artery occlusion (tMCAO) was used. The model has been described by Kleinschnitz C, et al. 2010, J Exp Med 203(3):513-518. C57B16/J mice were anesthetized with isoflurane (0.8% in oxygen). The animal was placed on a heating-pad, and rectal temperature was maintained at 37.0° C. using a servo-controlled rectal probe-heating pad (Cibertec, Spain). Transient cerebral ischemia was induced using an intraluminal filament technique. Using a surgical microscope (Tecnoscopio OPMI pico, Carl Zeiss, Meditec Iberia SA, Spain), a midline neck incision was made and the right common and external carotid arteries were isolated and permanently ligated. […]
After sacrificing the mice (24 h reperfusion), brains were quickly removed and cut in four 2-mm thick coronal sections using a mouse brain slice matrix (Harvard Apparatus, Spain). […] Indirect infarct volumes were calculated by volumetry (ImageJ software, National Institutes of Health, USA) according to the following equation: Vindirect (mm^3)=Vinfarct×(1−(Vih−Vch)/Vch), where the term (Vih−Vch) represents the volume difference between the ischemic hemisphere and the control hemisphere and (Vih−Vch)/Vch expresses this difference as a percentage of the control hemisphere (FIGS. 7 and 9).

| Compound | GFAP immunoreactivity in retina (Sprague-Dawley rats) | neuroprotective effect (cell viability) (Hippocampal brain slices) | human islet cell death with cytokines (Human islet cells; IL-1β (20 ng/ml)+IFN-γ (20 ng/ml)) | human islet cell death with high glucose+palmitate (Human islet cells; palmitate (1.5 mM)+high glucose (20 mM)) | brain damage (TTC stained coronal brain sections) (C57B16/J mice) | infarct volume (C57B16/J mice; compared to control animals) |
| --- | --- | --- | --- | --- | --- | --- |
| Cc1ccccc1CCNS(=O)(=O)c1c(Cl)cc(Br)cc1Cl [Example 17, 4-bromo-2,6-dichloro-N-[2-(2-methylphenyl)ethyl]benzene-1-sulfonamide] | attenuated the diabetes induced increase in GFAP immunoreactivity | neuroprotective effect | protected both against cytokines and high glucose+palmitate | protected both against cytokines and high glucose+palmitate | significant reduction in brain damage | substantial reduction of infarct volume |
| Cc1ccccc1CCNS(=O)(=O)c1c(C)cccc1Cl [Example 11, 2-chloro-6-methyl-N-[2-(2-methylphenyl)ethyl]benzene-1-sulfonamide] |  | neuroprotective effect |  |  |  |  |
